Reference: patent US5185330A, “Penam derivatives and salts thereof, and antibacterial agent comprising the same” (Toyama Chemical Co., Ltd., priority 1989, dated 1993)
In brackets after ≈: the same amount, converted by molar mass. Structures can show the parent of a compound that is named as a salt. Where two headings read alike, the source gives them in different places.

Legend:
S. marcescens W-8 = assay: Antibacterial activity (MIC, agar dilution) against S. marcescens W-8*; format: cell-based; details: Serratia marcescens
Protocol: (§1) According to Chemotherapy, vol. 29, No. 1, pp. 76-79 (1981), bacterium was cultured in peptone broth manufactured by Eiken Kagaku K.K. at 37° C. for 20 hours to prepare a bacterial solution of 10^8 cells/ml, and one loopful of the bacterial solution was inoculated into Heart Infusion agar medium (manufactured by Eiken Kagaku K.K.) containing a drug, cultured at 37° C. for 20 hours, after which growth of bacterium was observed. The minimum concentration at which the growth of bacterium was prevented was indicated as MIC (μg/ml).
(§2) *means that β-lactamaseproducing bacteria.

E. coli TK-3 = assay: Antibacterial activity (MIC, agar dilution) against E. coli TK-3*; format: cell-based; details: Escherichia coli
Protocol: as §1, §2

[1] = W8, S. marcescens W-8* (β-lactamase-producing bacteria), Heart Infusion agar, 37° C., 20 hours, one loopful of 10^8 cells/ml, read-out: MIC
[2] = TK3, E. coli TK-3* (β-lactamase-producing bacteria), Heart Infusion agar, 37° C., 20 hours, one loopful of 10^8 cells/ml, read-out: MIC

SMILES	MIC (S. marcescens W-8; [1]) [µg/mL]	MIC (E. coli TK-3; [2]) [µg/mL]	MIC (S. marcescens W-8; W8, 20 h) [µg/mL]	MIC (E. coli TK-3; TK3, 20 h) [µg/mL]
O=C(O)C=CC=NN1CCN([C@]2(C(=O)O)CN3C(=O)[C@@H](NC(=O)C(c4cc(O)c(O)cc4Cl)S(=O)(=O)O)[C@H]3S2)C1=O (some centres unmarked) [compound 48]	0.1 (≈ 0.158 µM)	0.1 (≈ 0.158 µM)	–	–
C=CC=NN1CCN([C@]2(C(=O)O)CN3C(=O)[C@@H](NC(=O)C(c4cc(O)c(O)cc4Cl)S(=O)(=O)O)[C@H]3S2)C1=O (some centres unmarked) [compound 49]	–	–	≤ 0.05	≤ 0.05
O=C(O)C(C(=O)N[C@@H]1C(=O)N2C[C@@](C(=O)O)(N3CCN(N=C4C=CCC4)C3=O)S[C@H]12)c1ccccc1 (some centres unmarked) [compound 50]	0.1 (≈ 0.195 µM)	–	–	0.39 (≈ 0.759 µM)
CCN1CCN(C(=O)N[C@@H](C(=O)N[C@@H]2C(=O)N3C[C@@](C(=O)O)(N4CCN(C)C4=O)S[C@H]23)c2ccccc2)C(=O)C1=O [compound 51, Sodium salt of (3R,5R,6R)3-carboxy-6-[D-α-(4-ethyl-2,3-dioxo-1-piperazinecarboxamio)-α-phenylacetamido]-3-(3-methyl-2-oxoimidazolidin-1-yl)-7-oxo-4-tha-1-azabicyclo[3.2.0]heptane, reference compound]	> 200	> 200	–	–
